# Assays:
# Assay type in all cases: cell-based, Cercopithecidae
# [1] = molecular target: T1, Mu-type opioid receptor (Homo sapiens, UniProt P35372); experiment: Binding affinity using [3H]diprenorphine as the radioligand against wild-type Opioid receptor mu 1 in COS-7 cells
# [2] = molecular target: Kappa-type opioid receptor (Homo sapiens, UniProt P41145, E297A); experiment: Binding affinity using [3H]diprenorphine as the radioligand against E297A mutant Opioid receptor kappa 1 in COS-7 cells
# [3] = molecular target: Kappa-type opioid receptor (Homo sapiens, UniProt P41145, E297K); experiment: Binding affinity using [3H]diprenorphine as the radioligand against E297K mutant Opioid receptor kappa 1 in COS-7 cells
# [4] = molecular target: T1, Mu-type opioid receptor; experiment: Binding affinity using [3H]diprenorphine as the radioligand against K303E Opioid receptor mu 1 in COS-7 cells
# [5] = molecular target: T2, Kappa-type opioid receptor (Homo sapiens, UniProt P41145); experiment: Binding affinity using [3H]diprenorphine as the radioligand against wild-type Opioid receptor kappa 1 in COS-7 cells
# [6] = molecular target: T2, Kappa-type opioid receptor; experiment: Binding affinity using [3H]diprenorphine as the radioligand against wild-type Opioid receptor kappa 1r in COS-7 cells
# T1 sequence (P35372 whole entry): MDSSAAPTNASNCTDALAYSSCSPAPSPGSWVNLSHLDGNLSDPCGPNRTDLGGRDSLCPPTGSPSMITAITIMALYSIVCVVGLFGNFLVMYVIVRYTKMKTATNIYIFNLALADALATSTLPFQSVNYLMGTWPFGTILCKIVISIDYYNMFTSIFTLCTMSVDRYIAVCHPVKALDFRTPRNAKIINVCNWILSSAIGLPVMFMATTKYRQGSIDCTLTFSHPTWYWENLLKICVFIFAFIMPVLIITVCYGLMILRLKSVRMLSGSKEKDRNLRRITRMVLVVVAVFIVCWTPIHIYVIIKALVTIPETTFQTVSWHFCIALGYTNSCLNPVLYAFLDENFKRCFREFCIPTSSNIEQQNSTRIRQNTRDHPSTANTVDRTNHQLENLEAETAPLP
# Kappa-type opioid receptor (Homo sapiens, UniProt P41145, E297K), sequence (P41145 whole entry E297K): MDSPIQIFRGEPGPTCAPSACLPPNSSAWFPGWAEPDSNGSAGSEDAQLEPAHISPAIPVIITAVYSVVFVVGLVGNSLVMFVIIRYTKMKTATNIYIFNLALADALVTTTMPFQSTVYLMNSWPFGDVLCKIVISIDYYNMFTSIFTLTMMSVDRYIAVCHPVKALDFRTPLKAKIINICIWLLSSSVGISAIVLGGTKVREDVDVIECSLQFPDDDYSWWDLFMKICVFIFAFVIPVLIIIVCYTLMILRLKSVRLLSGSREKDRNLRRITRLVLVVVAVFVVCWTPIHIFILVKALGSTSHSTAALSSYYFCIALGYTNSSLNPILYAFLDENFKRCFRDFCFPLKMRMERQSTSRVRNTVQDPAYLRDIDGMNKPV
# T2 sequence (P41145 whole entry): as the sequence (P41145 whole entry E297K) above, with K297E counted along it
# Kappa-type opioid receptor (Homo sapiens, UniProt P41145, E297A), sequence (P41145 whole entry E297A): as the sequence (P41145 whole entry E297K) above, with K297A counted along it
SMILES,Ki [1] [µM],Ki [2] [µM],Ki [3] [µM],Ki [4] [µM],Ki [5] [µM],Ki [6] [µM]
CC(=O)N1CC[C@]23c4c5ccc(O)c4O[C@H]2c2[nH]c4c(c2C[C@@]3(O)[C@H]1C5)C[C@@]1(O)[C@H]2Cc3ccc(O)c5c3[C@@]1(CCN2CC1CC1)[C@H]4O5,0.102,0.104,0.104,0.042,0.0236,–
CN1CC[C@]23c4c5ccc(O)c4O[C@H]2c2[nH]c4c(c2C[C@@]3(O)[C@H]1C5)C[C@@]1(O)[C@H]2Cc3ccc(O)c5c3[C@@]1(CCN2C)[C@H]4O5,> 1,> 1,> 1,0.0417,0.0217,–
CN1CC[C@]23c4c5ccc(O)c4O[C@H]2c2[nH]c4c(c2C[C@H]3[C@H]1C5)C[C@@]1(O)[C@H]2Cc3ccc(O)c5c3[C@@]1(CCN2CC1CC1)[C@H]4O5,0.04,0.0396,0.0399,0.00016,0.00032,–
COc1ccc2c3c1O[C@H]1c4[nH]c5c(c4C[C@@]4(O)[C@@H](C2)N(CC2CC2)CC[C@]314)C[C@@]1(O)[C@H]2Cc3ccc(O)c4c3[C@@]1(CCN2CC1CC1)[C@H]5O4,0.276,0.017,0.028,0.0027,0.00039,–
COc1ccc2c3c1O[C@H]1c4[nH]c5c(c4C[C@@]4(O)[C@@H](C2)N(CC2CC2)CC[C@]314)C[C@@]1(O)[C@H]2Cc3ccc(O)c4c3[C@@]1(CCN2C)[C@H]5O4,0.165,> 1,> 1,0.052,0.0363,–
N=C(N)N1CC[C@]23c4c5ccc(O)c4O[C@H]2c2[nH]c4c(c2C[C@@]3(O)[C@H]1C5)C[C@@]1(O)[C@H]2Cc3ccc(O)c5c3[C@@]1(CCN2CC1CC1)[C@H]4O5,–,–,0.189,–,–,0.00057
